Experimental data as given in PubChem BioAssay (NCI).
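In this assay, cells in 96-well plates receive the compound at five concentrations for 48 hours. Endpoints are linearly interpolated between the surrounding concentrations. TGI marks complete inhibition of growth.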

How the values were obtained:
Test in all cases: DTP human tumour cell line panel, 48 h
CAKI-1 renal = tested on: CAKI-1 renal
HL-60(TB) leukemia = tested on: HL-60(TB) leukemia
NCI-H460 lung = tested on: NCI-H460 lung
SF-295 CNS = tested on: SF-295 CNS
HT29 colon = tested on: HT29 colon
XF 498 CNS = tested on: XF 498 CNS
SNB-19 CNS = tested on: SNB-19 CNS
SNB-75 CNS = tested on: SNB-75 CNS
A549 NSCLC = tested on: A549 NSCLC
KM12 colon = tested on: KM12 colon
HOP-18 NSCLC = tested on: HOP-18 NSCLC
SK-MEL-2 melanoma = tested on: SK-MEL-2 melanoma
COLO 205 colon = tested on: COLO 205 colon
HOP-62 NSCLC = tested on: HOP-62 NSCLC
RXF 393 renal = tested on: RXF 393 renal
K-562 leukemia = tested on: K-562 leukemia
SN12C renal = tested on: SN12C renal
LXFL 529 NSCLC = tested on: LXFL 529 NSCLC
U251 CNS = tested on: U251 CNS
DLD-1 colon = tested on: DLD-1 colon
HCC-2998 colon = tested on: HCC-2998 colon
NCI-H226 lung = tested on: NCI-H226 lung
RXF-631 renal = tested on: RXF-631 renal
786-0 renal = tested on: 786-0 renal
OVCAR-8 ovarian = tested on: OVCAR-8 ovarian
NCI-H522 lung = tested on: NCI-H522 lung
DMS 114 small cell lung = tested on: DMS 114 small cell lung
DMS 273 small cell lung = tested on: DMS 273 small cell lung
MOLT-4 leukemia = tested on: MOLT-4 leukemia
SF-268 CNS = tested on: SF-268 CNS
KM20L2 colon = tested on: KM20L2 colon
UACC-257 melanoma = tested on: UACC-257 melanoma
UACC-62 melanoma = tested on: UACC-62 melanoma
SR leukemia = tested on: SR leukemia
RPMI-8226 leukemia = tested on: RPMI-8226 leukemia
SK-MEL-5 melanoma = tested on: SK-MEL-5 melanoma
SNB-78 CNS = tested on: SNB-78 CNS
MALME-3M melanoma = tested on: MALME-3M melanoma
UO-31 renal = tested on: UO-31 renal
IGROV1 ovarian = tested on: IGROV1 ovarian
NCI-H23 lung = tested on: NCI-H23 lung
LOX IMVI melanoma = tested on: LOX IMVI melanoma
HOP-92 NSCLC = tested on: HOP-92 NSCLC
SK-OV-3 ovarian = tested on: SK-OV-3 ovarian
OVCAR-4 ovarian = tested on: OVCAR-4 ovarian
SF-539 CNS = tested on: SF-539 CNS
HCT-116 colon = tested on: HCT-116 colon
HCT-15 colon = tested on: HCT-15 colon
A498 renal = tested on: A498 renal
SW-620 colon = tested on: SW-620 colon
M14 melanoma = tested on: M14 melanoma
TK-10 renal = tested on: TK-10 renal
EKVX NSCLC = tested on: EKVX NSCLC
SK-MEL-28 melanoma = tested on: SK-MEL-28 melanoma
CCRF-CEM leukemia = tested on: CCRF-CEM leukemia
OVCAR-3 ovarian = tested on: OVCAR-3 ovarian
OVCAR-5 ovarian = tested on: OVCAR-5 ovarian
ACHN renal = tested on: ACHN renal
M19-MEL melanoma = tested on: M19-MEL melanoma

SMILES: O=S(=O)(O)C1=C2Sc3ccccc3N=C2c2ccccc2C1
- TGI (CAKI-1 renal): 34.7 µM
- TGI (HL-60(TB) leukemia): 21.2 µM
- TGI (NCI-H460 lung): 40 µM
- TGI (SF-295 CNS): 26.7 µM
- TGI (HT29 colon): 40 µM
- TGI (XF 498 CNS): 31.8 µM
- TGI (SNB-19 CNS): 51.6 µM
- TGI (SNB-75 CNS): 32.5 µM
- TGI (A549 NSCLC): 34.3 µM
- TGI (KM12 colon): 29.5 µM
- TGI (HOP-18 NSCLC): 25.2 µM
- TGI (SK-MEL-2 melanoma): 35.7 µM
- TGI (COLO 205 colon): 30.3 µM
- TGI (HOP-62 NSCLC): 35 µM
- TGI (RXF 393 renal): 35.1 µM
- TGI (K-562 leukemia): 36.1 µM
- TGI (SN12C renal): 26.8 µM
- TGI (LXFL 529 NSCLC): 24.6 µM
- TGI (U251 CNS): 25.4 µM
- TGI (DLD-1 colon): 32.5 µM
- TGI (HCC-2998 colon): 31.4 µM
- TGI (NCI-H226 lung): 35.5 µM
- TGI (RXF-631 renal): 29.5 µM
- TGI (786-0 renal): 31.4 µM
- TGI (OVCAR-8 ovarian): 31.5 µM
- TGI (NCI-H522 lung): 31.3 µM
- TGI (DMS 114 small cell lung): 22.2 µM
- TGI (DMS 273 small cell lung): 29.5 µM
- TGI (MOLT-4 leukemia): 29.1 µM
- TGI (SF-268 CNS): 27.5 µM
- TGI (KM20L2 colon): 34.3 µM
- TGI (UACC-257 melanoma): 31.4 µM
- TGI (UACC-62 melanoma): 26.4 µM
- TGI (SR leukemia): 20.6 µM
- TGI (RPMI-8226 leukemia): 38.6 µM
- TGI (SK-MEL-5 melanoma): 26.4 µM
- TGI (SNB-78 CNS): 34 µM
- TGI (MALME-3M melanoma): 30 µM
- TGI (UO-31 renal): 33.6 µM
- TGI (IGROV1 ovarian): 28.1 µM
- TGI (NCI-H23 lung): 31.1 µM
- TGI (LOX IMVI melanoma): 25.5 µM
- TGI (HOP-92 NSCLC): 22 µM
- TGI (SK-OV-3 ovarian): 44.1 µM
- TGI (OVCAR-4 ovarian): 33.8 µM
- TGI (SF-539 CNS): 24.4 µM
- TGI (HCT-116 colon): 28.5 µM
- TGI (HCT-15 colon): 27.3 µM
- TGI (A498 renal): 32.8 µM
- TGI (SW-620 colon): 29.8 µM
- TGI (M14 melanoma): 25.5 µM
- TGI (TK-10 renal): 32.9 µM
- TGI (EKVX NSCLC): 32 µM
- TGI (SK-MEL-28 melanoma): 31.4 µM
- TGI (CCRF-CEM leukemia): 24.3 µM
- TGI (OVCAR-3 ovarian): 31.3 µM
- TGI (OVCAR-5 ovarian): 34.5 µM
- TGI (ACHN renal): 25.1 µM

SMILES: NC(=S)N1N=C2c3ccccc3CC[C@@H]2[C@@H]1c1ccccc1
- TGI (CAKI-1 renal): 42.2 µM
- TGI (HL-60(TB) leukemia): 10.5 µM
- TGI (NCI-H460 lung): > 42.2 µM
- TGI (SF-295 CNS): > 42.2 µM
- TGI (HT29 colon): 15.6 µM
- TGI (SNB-19 CNS): > 100 µM
- TGI (SNB-75 CNS): 35.6 µM
- TGI (A549 NSCLC): > 60.2 µM
- TGI (KM12 colon): 31 µM
- TGI (HOP-18 NSCLC): > 100 µM
- TGI (SK-MEL-2 melanoma): > 48.5 µM
- TGI (M19-MEL melanoma): 47.2 µM
- TGI (COLO 205 colon): 16.8 µM
- TGI (HOP-62 NSCLC): > 59.1 µM
- TGI (RXF 393 renal): 41.5 µM
- TGI (K-562 leukemia): > 49.1 µM
- TGI (SN12C renal): 17.3 µM
- TGI (LXFL 529 NSCLC): 97.6 µM
- TGI (U251 CNS): 21.6 µM
- TGI (DLD-1 colon): > 86.4 µM
- TGI (HCC-2998 colon): > 55.7 µM
- TGI (NCI-H226 lung): 45.6 µM
- TGI (RXF-631 renal): > 100 µM
- TGI (786-0 renal): 50.5 µM
- TGI (OVCAR-8 ovarian): 72.3 µM
- TGI (NCI-H522 lung): 4.53 µM
- TGI (DMS 114 small cell lung): 8.01 µM
- TGI (DMS 273 small cell lung): 20.7 µM
- TGI (MOLT-4 leukemia): 48 µM
- TGI (SF-268 CNS): 49.5 µM
- TGI (KM20L2 colon): 16.3 µM
- TGI (UACC-257 melanoma): 56.3 µM
- TGI (UACC-62 melanoma): 26.1 µM
- TGI (SR leukemia): 12.6 µM
- TGI (RPMI-8226 leukemia): 32.9 µM
- TGI (SK-MEL-5 melanoma): 27.1 µM
- TGI (SNB-78 CNS): > 82 µM
- TGI (MALME-3M melanoma): 66.7 µM
- TGI (UO-31 renal): > 94.6 µM
- TGI (IGROV1 ovarian): > 80.3 µM
- TGI (NCI-H23 lung): 19 µM
- TGI (LOX IMVI melanoma): 20.1 µM
- TGI (HOP-92 NSCLC): 47.2 µM
- TGI (SK-OV-3 ovarian): 33.9 µM
- TGI (OVCAR-4 ovarian): > 100 µM
- TGI (SF-539 CNS): 22.3 µM
- TGI (HCT-116 colon): 19.1 µM
- TGI (HCT-15 colon): 24.6 µM
- TGI (A498 renal): > 83.8 µM
- TGI (SW-620 colon): > 59.3 µM
- TGI (M14 melanoma): 31.1 µM
- TGI (TK-10 renal): > 68 µM
- TGI (EKVX NSCLC): > 81.8 µM
- TGI (CCRF-CEM leukemia): 62.3 µM
- TGI (OVCAR-3 ovarian): 12.7 µM
- TGI (OVCAR-5 ovarian): 99.9 µM
- TGI (ACHN renal): > 88.9 µM
